This note sets out measurements from the NIST ThermoML archive (doi:10.1016/j.jct.2006.11.003).

The conditions of data set [1]: 101 kPa, Liquid.
Data set [2] can be described thus: refractive index (Na D-line) (dimensionless). Particulars: 298.15 K; 101.33 kPa; Liquid; Standard Abbe refractometry.
Data set [3] in a line: xn = mol fraction of the nth substance listed. Particulars: 101 kPa, Liquid, x2 = 0.

± gives the expanded uncertainty stated by the source.

A word on the mass density: it is the mass of a sample divided by its volume. Usually refractive index stands for the speed of light in vacuum divided by its phase velocity in the sample. In the case of `Cc1ccccc1C` [1,2-dimethylbenzene], the mass density in data set [1] (293.15 K) was found to be 879.84 ± 0.64 kg/m3; in data set [1] (298.15 K), 875.73 ± 0.65 kg/m3; in data set [1] (303.15 K) it was 871.48 ± 0.66 kg/m3; in data set [1] (313.15 K), 863.03 ± 0.69 kg/m3; in data set [1] (323.15 K), 854.51 ± 0.72 kg/m3; in data set [1] (333.15 K), 845.91 ± 0.74 kg/m3. Besides, the mass density in data set [1] (343.15 K) is 837.23 ± 0.77 kg/m3; in data set [1] (353.15 K), 828.47 ± 0.8 kg/m3. Further, the refractive index in data set [2] amounted to 1.5057 ± 0.0007.
For `Cc1cccc(C)c1` [1,3-dimethylbenzene], the mass density in data set [1] (293.15 K) is on record as 864.31 ± 1.3 kg/m3; in data set [1] (298.15 K) it was 859.83 ± 1.3 kg/m3; in data set [1] (303.15 K) it was 855.64 ± 1.3 kg/m3; in data set [1] (313.15 K) it was 846.9 ± 1.3 kg/m3; in data set [1] (323.15 K) it was 838.09 ± 1.3 kg/m3; in data set [1] (333.15 K), 829.22 ± 1.3 kg/m3. The mass density in data set [1] (343.15 K) is 820.29 ± 1.4 kg/m3; in data set [1] (353.15 K), 811.29 ± 1.4 kg/m3. In addition, the refractive index in data set [2] amounted to 1.4973 ± 0.0008.
With `Cc1ccc(C)cc1` [1,4-dimethylbenzene], the mass density in data set [1] (293.15 K) came out at 860.95 ± 0.83 kg/m3; in data set [1] (298.15 K), 856.58 ± 0.84 kg/m3; in data set [1] (303.15 K), 852.3 ± 0.85 kg/m3; in data set [1] (323.15 K), 834.76 ± 0.9 kg/m3; in data set [1] (333.15 K), 825.86 ± 1.2 kg/m3; in data set [1] (343.15 K) it was 816.87 ± 0.95 kg/m3. Also, in data set [1] (353.15 K), the mass density is reported as 807.81 ± 0.98 kg/m3. In addition, the refractive index in data set [2] came out at 1.4958 ± 0.0008.
`CN1CCCC1=O` [N-methylpyrrolidone]: the mass density in data set [1] (293.15 K) was determined as 1032.66 ± 0.48 kg/m3; in data set [1] (298.15 K), 1028.25 ± 0.46 kg/m3; in data set [1] (303.15 K) it was 1023.42 ± 0.44 kg/m3; in data set [1] (313.15 K), 1014.27 ± 0.4 kg/m3; in data set [1] (323.15 K), 1005.62 ± 0.37 kg/m3; in data set [1] (333.15 K), 996.28 ± 0.36 kg/m3. Further, the mass density came to 987.39 ± 0.4 kg/m3 in data set [1] (343.15 K) and 978.62 ± 0.43 kg/m3 in data set [1] (353.15 K). The refractive index in data set [2] amounted to 1.4677 ± 0.0007.
Consider `CN1CCCC1=O` [N-methylpyrrolidone] + Cc1ccc(C)cc1, for which the mass density in data set [3] (293.15 K) is given as 1032.66 ± 0.48 kg/m3; in data set [3] (303.15 K) it was 1023.42 ± 0.44 kg/m3; in data set [3] (313.15 K) it was 1014.27 ± 0.4 kg/m3; in data set [3] (323.15 K), 1005.62 ± 0.37 kg/m3; in data set [3] (333.15 K), 996.28 ± 0.36 kg/m3; in data set [3] (343.15 K), 987.39 ± 0.4 kg/m3. In addition, the mass density in data set [3] (353.15 K) came out at 978.62 ± 0.43 kg/m3.
For the compound `CN1CCCC1=O` [N-methylpyrrolidone] + Cc1cccc(C)c1, the mass density is recorded as 1032.66 ± 0.48 kg/m3 in data set [3] (293.15 K); 1023.42 ± 0.44 kg/m3 in data set [3] (303.15 K); 1014.27 ± 0.4 kg/m3 in data set [3] (313.15 K); 1005.62 ± 0.37 kg/m3 in data set [3] (323.15 K); 996.28 ± 0.36 kg/m3 in data set [3] (333.15 K); 987.39 ± 0.4 kg/m3 in data set [3] (343.15 K). The mass density in data set [3] (353.15 K) was 978.62 ± 0.43 kg/m3.
For the compound `CN1CCCC1=O` [N-methylpyrrolidone] + Cc1ccccc1C, the mass density in data set [3] (293.15 K) was 1032.66 ± 0.48 kg/m3; in data set [3] (303.15 K), 1023.42 ± 0.44 kg/m3; in data set [3] (313.15 K), 1014.27 ± 0.4 kg/m3; in data set [3] (323.15 K), 1005.62 ± 0.37 kg/m3; in data set [3] (333.15 K), 996.28 ± 0.36 kg/m3; in data set [3] (343.15 K), 987.39 ± 0.4 kg/m3. Besides, in data set [3] (353.15 K), the mass density was determined as 978.62 ± 0.43 kg/m3.
